Source: PubChem BioAssay (NCI)
“And” between values parts separate entries of the source, which are not always exact repeats. Identical values can stand only once.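 Protocol summary: plate cells (96-well), add compound at 5 concentrations, incubate 48 h, interpolate endpoints linearly. At the GI50, growth is halved. At the TGI there is no net growth.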 Where a SMILES comes first, the peptide text is derived from it. The star is where a group is joined. Cbz = O=C(OCc1ccccc1)*; Boc = CC(C)(C)OC(=O)*; OSu = O=C1CCC(=O)N1O*; Bn = c1ccc(C*)cc1

Assays:
Experiment in all cases: growth of human tumour cells (NCI), 48 h
MDA-MB-435 = test system: MDA-MB-435
SK-MEL-2 melanoma = test system: SK-MEL-2 melanoma
HCC-2998 colon = test system: HCC-2998 colon
HS 578T breast = test system: HS 578T breast
SK-MEL-5 melanoma = test system: SK-MEL-5 melanoma
U251 CNS = test system: U251 CNS
A498 renal = test system: A498 renal
NCI-H226 lung = test system: NCI-H226 lung
RPMI-8226 leukemia = test system: RPMI-8226 leukemia
SK-OV-3 ovarian = test system: SK-OV-3 ovarian
OVCAR-4 ovarian = test system: OVCAR-4 ovarian
SF-268 CNS = test system: SF-268 CNS
HL-60(TB) leukemia = test system: HL-60(TB) leukemia

| SMILES | TGI (MDA-MB-435) [µM] | TGI (SK-MEL-2 melanoma) [µM] | TGI (HCC-2998 colon) [µM] | TGI (HS 578T breast) [µM] | TGI (SK-MEL-5 melanoma) | TGI (U251 CNS) [µM] | TGI (A498 renal) [µM] | TGI (NCI-H226 lung) [µM] | TGI (RPMI-8226 leukemia) [µM] | TGI (SK-OV-3 ovarian) [µM] | TGI (OVCAR-4 ovarian) [µM] | TGI (SF-268 CNS) [µM] | TGI (HL-60(TB) leukemia) | GI50 (MDA-MB-435) | GI50 (SK-MEL-5 melanoma) | GI50 (U251 CNS) | GI50 (HL-60(TB) leukemia) | GI50 (NCI-H226 lung) [µM] |
| --- | --- | --- | --- | --- | --- | --- | --- | --- | --- | --- | --- | --- | --- | --- | --- | --- | --- | --- |
| Cn1c(=O)c2c(nc(N/N=C3/SCC(=O)N3Cc3ccccc3)n2C)n(C)c1=O | > 100 | > 100 | > 100 | > 100 | > 100 µM | > 100 | > 100 | > 100 | 66.3 | > 100 | > 100 | > 100 |  |  |  |  |  |  |
| COC1OC(C(=O)O)C2OC(C)(C)OC12 (stereo not given) | > 100 | > 100 | > 100 |  | > 100 µM | > 100 |  | > 100 | > 100 | > 100 | > 100 | > 100 |  |  |  |  |  |  |
| NC(N)=NCCCC(NC(=O)c1c2ccccc2nc2ccccc12)C(=O)O (stereo not given) | > 100 | > 100 | > 100 |  | > 100 µM | > 100 | > 100 | > 100 | > 100 | > 100 | > 100 | > 100 |  |  |  |  |  |  |
| O=C(c1ccccc1)c1cc(Cl)ccc1NCn1nnc2ccccc21 |  | > 100 | > 100 |  |  | > 100 | > 100 | > 100 | > 100 | > 100 | > 100 |  | 88.8 µM |  |  |  |  |  |
| COc1ccc(C23OCC(Cc4cc(OC)c(OC)cc42)C3CO)cc1OC (stereo not given) | > 100 | > 100 | > 100 |  | > 100 µM | > 100 | > 100 | > 100 | > 100 | > 100 | > 100 |  | > 100 µM |  |  |  |  |  |
| N#Cc1c(N)nc(Sc2ccccc2N)c(C#N)c1-c1ccccc1 | 97.3 | 32.5 | 38.3 |  | > 100 µM | 60.2 |  | > 100 | > 100 |  | > 100 | 75.3 |  |  |  |  |  |  |
| c1cc2c(cc1[C@@H]1OC[C@@H]3[C@H]1CO[C@H]3c1ccc3c(c1)OCO3)OCO2 | > 100 | > 100 | > 100 |  | 33.6 µM | > 100 | > 100 | > 100 | > 100 | > 100 | > 100 | > 100 | > 100 µM |  |  |  |  |  |
| CC(C)=CCCC1(C)C2COC(=O)C21 (stereo not given) | > 100 | > 100 | > 100 |  | > 100 µM and 34.6 µM | > 100 | > 100 | > 100 | > 100 | > 100 | > 100 | > 100 | > 100 µM and 40.9 µM | > 100 µM and 43.6 µM | > 100 µM and 17.5 µM | > 100 µM and 43.5 µM | 43.3 µM and 18.8 µM | > 100 |
| CC[C@]1(Cc2ccc(OC)c(OC)c2)C=[N+]([O-])O[C@H](OC2CCCC2(c2ccccc2)c2ccccc2)[C@@H]1OC(=O)C(C)(C)C (stereo not given in full) | 4.12 | 7.66 | 3.71 | 28.7 | 4.09 µM | > 55.6 |  | 12.5 |  | > 86.1 | 14.1 | > 32.5 | 8.1 µM |  |  |  |  |  |
| CCCCCCCCCCCCC1N=C(N)N2CCCC2=C1C(=O)OC (stereo not given) | 3.09 | 3.64 | 3.25 | 4.17 | 4.88 µM | 3.06 | 47.1 | 48.8 |  | 23.8 | 5.86 | 14.8 |  |  |  |  |  |  |
| S=c1[nH]nc(CCCCCCCCc2n[nH]c(=S)o2)o1 | > 100 | > 100 |  |  | > 100 µM | > 100 | > 100 | > 100 |  | > 100 | > 100 | > 100 | > 100 µM |  |  |  |  |  |
| O=S(=O)(O)c1cc(O)c(N=Nc2ccc3ccccc3c2O)c2ccccc12 |  | > 100 |  | > 100 | 25.2 µM | > 100 |  | 49.5 | > 100 | > 100 | > 100 | 58.7 | > 100 µM |  |  |  |  |  |
| CC1=CCN(c2ccccn2)OC1c1ccccc1 (stereo not given) |  | > 100 | > 100 |  |  | > 100 |  | > 100 | > 100 | > 100 | > 100 | > 100 | > 100 µM |  |  |  |  |  |
| CCOC(=O)c1c(-c2ccccc2)c(C)cn1C | > 10 | > 10 |  | > 10 |  | > 10 |  | > 10 |  | > 10 | > 10 | > 10 |  |  |  |  |  |  |
| C/C(CC(=O)Nc1cccc([N+](=O)[O-])c1)=N\NC(=O)C[n+]1ccccc1 |  | > 100 | > 100 |  | > 100 µM | > 100 |  | > 100 | > 100 | > 100 |  | > 100 | > 100 µM |  |  |  |  |  |
| O=c1[nH]c2ccc([N+](=O)[O-])cc2nc1/C(=N/Nc1ccccc1)C(O)c1ccco1 (stereo not given) |  | > 100 | > 100 |  | 90.6 µM | > 100 |  | > 100 | > 100 | > 100 | > 100 | > 100 | > 100 µM |  |  |  |  |  |

| SMILES | TGI (MDA-MB-435) [µM] | TGI (SK-MEL-2 melanoma) [µM] | TGI (HCC-2998 colon) [µM] | TGI (HS 578T breast) [µM] | TGI (SK-MEL-5 melanoma) | TGI (U251 CNS) [µM] | TGI (A498 renal) [µM] | TGI (NCI-H226 lung) [µM] | TGI (RPMI-8226 leukemia) [µM] | TGI (SK-OV-3 ovarian) [µM] | TGI (OVCAR-4 ovarian) [µM] | TGI (SF-268 CNS) [µM] | TGI (HL-60(TB) leukemia) | GI50 (MDA-MB-435) | GI50 (SK-MEL-5 melanoma) | GI50 (U251 CNS) | GI50 (HL-60(TB) leukemia) | GI50 (NCI-H226 lung) [µM] |
| --- | --- | --- | --- | --- | --- | --- | --- | --- | --- | --- | --- | --- | --- | --- | --- | --- | --- | --- |
| CC(C)(C)OC(=O)NC(Cc1ccc(OCc2ccccc2)cc1)C(=O)NC(CCCCNC(=O)OCc1ccccc1)C(=O)NC(CCCCNC(=O)OCc1ccccc1)C(=O)ON1C(=O)CCC1=O (stereo not given) (Boc-Tyr(Bn)-Lys(Cbz)-Lys(Cbz)-OSu; configuration not given here) | > 100 | 99.4 |  | 49 | > 100 µM | 31.8 |  |  | > 100 | > 100 | > 100 | > 100 |  |  |  |  |  |  |
| CC1(Cl)CC(C)(/C=C/Cl)C(Cl)CC1Cl (stereo not given) |  | 26.3 | 32 |  | 30.2 µM | 30.8 | 34 |  |  | 66.4 | 37.1 | 31.1 |  |  |  |  |  |  |
| Cc1cc(C)n2c(nc3ccccc32)c1C#N | > 100 | > 100 | > 100 |  | > 100 µM | > 100 | > 100 | > 100 |  | > 100 | > 100 |  | > 100 µM |  |  |  |  |  |
| O=C1/C(=C/c2ccc(Cl)cc2)Oc2ccccc21 | > 100 |  | > 100 | 74.7 | 42.1 µM | > 100 |  | 68 | > 100 | > 100 | > 100 | > 100 | > 100 µM |  |  |  |  |  |
| O=C(/C(=C/c1ccc(O)cc1)c1ccccc1)c1ccccc1 |  | 24.1 | 32 |  | 28.3 µM | 29.7 | 32 | 30.8 | 42.3 | 40.2 | 55.2 | 34.6 | 31.6 µM |  |  |  |  |  |
| Cc1nc(Cc2n[nH]c(C)n2)n[nH]1 | > 100 | > 100 | > 100 |  | > 100 µM | > 100 |  |  | > 100 | > 100 | > 100 | > 100 |  |  |  |  |  |  |
| COc1cc2c(cc1OC)C(=O)/C(=C/c1ccc(N(C)C)cc1)CC2 | > 10 | > 10 | > 10 | > 10 | > 10 µM | > 10 |  | > 10 | > 10 | > 10 | > 10 | > 10 | > 10 µM |  |  |  |  |  |
| Cc1ccccc1Nc1nc2ccccc2nc1NS(=O)(=O)c1ccccc1 | > 100 | > 100 | > 100 | > 100 | > 100 µM | > 100 |  | > 100 | > 100 | > 100 | > 100 | > 100 | > 100 µM |  |  |  |  |  |
| C[n+]1c2ccccc2c(C(=O)Nc2ccc(S(=O)(=O)Nc3ncccn3)cc2)c2ccccc21 | > 100 | > 100 | > 100 | > 100 | > 100 µM | > 100 |  | > 100 | > 100 | > 100 | > 100 | > 100 |  |  |  |  |  |  |
| Cc1ncc(CSC(=N)N)n1Cc1ccccc1 | > 100 | > 100 |  | > 100 | > 100 µM | > 100 | > 100 | > 100 | 83.2 | > 100 | > 100 | > 100 |  |  |  |  |  |  |
| O=CC1=CCC2c3[nH]c4ccccc4c3CCN2C1 (stereo not given) |  | 267 | 253 |  | > 396 µM | 195 |  | 385 | > 396 | > 396 |  | > 396 | > 396 µM |  |  |  |  |  |
| CC(C)=CC(=O)c1c(C(=O)O)nc2ccccc2[n+]1[O-] |  | > 100 | > 100 |  | > 100 µM | > 100 | > 100 | > 100 | > 100 | > 100 | > 100 | > 100 | > 100 µM |  |  |  |  |  |
| COC(=O)CC1CC2(C(=O)OC)c3[nH]c4ccccc4c3CCN2C1=O (stereo not given) |  | > 100 | > 100 |  | > 100 µM | > 100 | > 100 | > 100 |  | > 100 | > 100 | > 100 | > 100 µM |  |  |  |  |  |
| O=c1c2cc(I)ccc2nc(-c2cccs2)n1O | > 100 | > 100 | > 100 |  | > 100 µM | > 100 |  | > 100 | > 100 |  | 96.9 | > 100 | > 100 µM |  |  |  |  |  |
| Clc1cc2ncn(C3CCCCO3)c2cc1Cl (stereo not given) | > 100 | > 100 | > 100 | 85.4 | > 100 µM | > 100 |  | 80.9 | > 100 | > 100 | > 100 | > 100 | > 100 µM |  |  |  |  |  |
